Columns and labels:
UmKin5 = biological target: T1, UmKin5 (Mycosarcoma maydis, UniProt A0A0D1DQH0); assay: cryo-EM structure; details: microtubule-bound (bovine brain tubulin, paclitaxel); 5 mM AMPPNP, 1 mM MgCl2, pH 6.8; nucleotide binding site; overall resolution 4.3 Å, motor ~5-7 Å
T1 construct: gene UMAG_10678; motor domain residues 73-456 without N-terminal extension; N-terminal His6 tag removed by TEV protease; E. coli BL21*(DE3); monomeric

N+UmKin5 = biological target: T2, N+UmKin5 (Mycosarcoma maydis, UniProt A0A0D1DQH0); assay: cryo-EM structure; details: microtubule-bound (bovine brain tubulin, paclitaxel); 5 mM AMPPNP, 1 mM MgCl2, pH 6.8; nucleotide binding site; overall resolution 4.5 Å, motor ~5-7 Å
T2 construct: gene UMAG_10678; motor domain with 72-residue N-terminal extension, residues 1-456; N-terminal His6 tag removed by TEV protease; E. coli BL21*(DE3); monomeric

Q: Which cryo-EM structure (UmKin5) does the source give for `Nc1ncnc2c1ncn2[C@@H]1O[C@H](COP(=O)(O)OP(=O)(O)NP(=O)(O)O)[C@@H](O)[C@H]1O` [AMPPNP] here?
A: Its cryo-EM structure is “Strong density is visible at the nucleotide binding site consistent with the presence of AMPPNP”.

Q: And the cryo-EM structure (N+UmKin5)?
A: Its cryo-EM structure is “Both constructs bound the MT lattice in the presence of the non-hydrolysable ATP analogue AMPPNP”.

Reference: paper PMC6722389, “Cryo-EM structure of the Ustilago maydis kinesin-5 motor domain bound to microtubules” (Journal of Structural Biology, 2019)
